# Laboratory results: US7977387B2, “Aminobenzophenone compounds” (Leo Pharma A/S, priority 2003, dated 2011)
# Experiments:
# p38α MAP kinase = molecular target: T1, p38α MAP kinase (Homo sapiens, UniProt Q16539); assay: p38α MAP kinase assay (immunoprecipitated FLAG-p38α, GST-ATF-2 substrate); format: biochemical; details: FLAG-p38α from COS-1 cells, 50 μM ATP; read-out: p38 MAP kinase IC50
# T1 construct: made in house; host or cells: COS-1 cells (transient co-transfection; anti-FLAG M2 immunoprecipitation)
# T1 sequence (Q16539 whole entry): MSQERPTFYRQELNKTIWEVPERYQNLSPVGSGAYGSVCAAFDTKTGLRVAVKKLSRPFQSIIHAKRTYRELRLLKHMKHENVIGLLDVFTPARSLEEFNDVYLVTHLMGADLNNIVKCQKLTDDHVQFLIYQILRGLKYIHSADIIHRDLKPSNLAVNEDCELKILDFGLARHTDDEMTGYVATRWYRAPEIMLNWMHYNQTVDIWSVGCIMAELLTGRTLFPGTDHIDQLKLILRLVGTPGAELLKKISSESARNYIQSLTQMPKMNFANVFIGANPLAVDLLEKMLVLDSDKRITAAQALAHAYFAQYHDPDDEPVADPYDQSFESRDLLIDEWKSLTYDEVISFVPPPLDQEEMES
# Method: COS-1 cells (derived from African green monkey kidney fibroblast-like cell containing wild-type T antigen under control of the SV40 promotor) were obtained from ATCC (ATCC no. CRL-1650) and grown in growth medium (DMEM without phenoired, 10% FCS, 2 mM L-glutamine, 100 U penicillin and 100 μg streptomycin/ml) at 37° C. with 5% CO2. The cells were passaged twice a week by trypsination (0.25% trypsin, 1 mM EDTA in PBS) and were split 1:10. The medium was changed every second or third day. The cell line was regularly tested with the Mycoplasma PCR Primer Set (Stratagene) and found to be free of Mycoplasma. Tissue culture media, FCS, L-glutamine and penicillin and streptomycin are from Bribco BRL, Gaithersburg, Md., USA.
# Transient Expression of COS-1 Cells
# On day one COS-1 cells were seeded in 143 cm^2 petri dish with a density of 2×10^4 celler/cm^2 in growth medium. At day 2 the cells were co-transfected with 5 μg (total) of experimental plasmid DNA, expressing the FLAG-p38α and FLAG-MKK6(EE). The plasmids were introduced into the COS-1 cells in serum-free medium using DOTAP™ (Boehringer-Mannheim, Mannheim, Germany). Plasmid DNA was prepared and purified using the QIAGEN EndoToxin-free Maxiprep-500 kit (Hilden, Germany). Briefly, DNA and DOTAP™ were mixed for exactly 15 min. at 37° C. In the CO2 incubator. […]
# [1] = system: LPS induced TNF-α response; assay: In vivo screening model of LPS induced TNF-α response in mice; details: Mus musculus, mice (C3H/HeN), dosed 1 hour prior to LPS, plasma TNF-α 80-90 minutes after LPS, vs LPS treated control group, read-out: In vivo inhibition of LPS induced TNF-α production (in %)
# Method: In Vivo Screening Model of LPS Induced TNF-α Response in Mice
# To study the effect of compounds of the present invention in vivo, an in vivo screening model of LPS induced TNF-α response in mice was set up as follows: Groups of 6 mice (C3H/HeN, female, about 8 weeks (20 g), Bomholtgaard) were dosed with test compounds in suspension vehicle 1 hour prior to LPS administration (LPS from E. coli 055:B5, L-4005, Sigma). At time 0, the mice were dosed ip with 1.0 mg LPS/kg. After anesthetization with Hypnorm/Dormicum, the mice were bled from the periorbital venous plexus 80-90 minutes after LPS administration. The blood samples were sampled in EDTA stabilised tubes and centrifuged at 4000 rpm for 10 minutes at 4° C. The plasma level of TNF-α was analysed by ELISA. Compound 156 of WO 98/32730 was used as reference compound. The plasma level of TNF-α was determined using a sandwich ELISA. Microtiter plates were coated with a monoclonal antibody against mouse TNF-α, washed and blocked with a casein buffer. Samples of mouse TNF-α recombinant standards were added to the wells of the microtiter plates and incubated. All standards were tested in triplicate, all plasma samples in single. After sample and standard incubation, the plates were washed and incubated with biotinylated polyclonal secondary antibody against mouse TNF-α and washed. Enzyme conjugate was added to all wells and incubated. Substrate was added and the enzyme/substrate reaction stopped after 15 minutes at room temperature with 1M H2SO4. The colour development (OD) was measured at 450 nm on an ELISA reader and the background OD at 620 nm was subtracted. […] The results of the tested compounds are indicated as a percentage inhibition compared to an LPS treated control group. Compounds were tested at 10 mg/kg. The Mann-Whitney test was used to compare drug treated groups to the LPS treated control group (p<0.05).
# TNF-α = assay: Inhibition of TNF-α secretion in LPS stimulated peripheral blood mononuclear cells; format: cell-based; details: PBMC; LPS stimulated human peripheral blood mononuclear cells, 18 hours, ELISA; read-out: The median inhibition concentration (IC50, nM) of TNF-α
# In short: (§1)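 Human PBMCs (5×10^5 cells/ml, RPMI 1640 + 2% FCS) pre-treated with compound 30 min, then stimulated with LPS ([…]) for 18 h. Secreted IL-1β and TNF-α quantified by ELISA; IC50 values calculated.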
# IL-1β = assay: Inhibition of IL-1β secretion in LPS stimulated peripheral blood mononuclear cells; format: cell-based; details: PBMC; LPS stimulated human peripheral blood mononuclear cells, 18 hours, ELISA; read-out: The median inhibition concentration (IC50, nM) of IL-1β
# In short: as §1
SMILES,IC50 (p38α MAP kinase) [nM],IC50 (TNF-α) [nM],IC50 (IL-1β) [nM],inhibition at 10 mg/kg [1] [%]
"Cc1ccc(C(=O)NCCO)cc1C(=O)c1ccc(Nc2ccccc2N)cc1Cl [Compound 112, 3-[4-(2-Aminophenylamino)-2-chlorobenzoyl]-N-(2-hydroxyethyl)-4-methylbenzamide]",2,0.6,4,96
"Cc1ccc(C(=O)NCCO)cc1C(=O)c1ccc(Nc2ccc(F)cc2Cl)cc1Cl [Compound 188, 3-[2-Chloro-4-(2-chloro-4-fluoro-phenylamino)-benzoyl]-N-(2-hydroxy-ethyl)-4-methyl-benzamide]",–,0.5,0.9,95
"COc1ccc(C(=O)NCC(O)CO)cc1C(=O)c1ccc(Nc2ccccc2)cc1Cl (stereo not shown) [Compound 202, 3-(2-Chloro-4-phenylamino-benzoyl)-N-(2,3-dihydroxy-propyl)-4-methoxy-benzamide]",–,2,5,67
"CSCCC(=O)Nc1ccc(C)c(C(=O)c2ccc(Nc3ccc(F)cc3F)cc2Cl)c1 [Compound 251, N-{3-[2-Chloro-4-(2,4-difluoro-phenylamino)-benzoyl]-4-methyl-phenyl}-3-methylsulfanyl-propionamide]",–,0.4,1.1,49
"Cc1ccc(NC(=O)NCCO)cc1C(=O)c1ccc(Nc2ccc(F)cc2F)cc1Cl [Compound 260, 1-{3-[2-Chloro-4-(2,4-difluoro-phenylamino)-benzoyl]-4-methyl-phenyl}-3-(2-hydroxy-ethyl)-urea]",–,0.5,1.8,95
"CCCNC(=O)Nc1ccc(C)c(C(=O)c2ccc(Nc3ccc(F)cc3F)cc2Cl)c1 [Compound 264, 1-{3-[2-Chloro-4-(2,4-difluoro-phenylamino)-benzoyl]-4-methyl-phenyl}-3-propyl-urea]",–,0.3,1,87
"Cc1ccc(NC(=O)NC2CCCCC2)cc1C(=O)c1ccc(Nc2ccc(F)cc2F)cc1Cl [Compound 266, 1-{3-[2-Chloro-4-(2,4-difluoro-phenylamino)-benzoyl]-4-methyl-phenyl}-3-cyclohexyl-urea]",–,0.4,0.9,54
"C=CCOC(=O)Nc1ccc(C)c(C(=O)c2ccc(Nc3ccc(F)cc3F)cc2Cl)c1 [Compound 278, {3-[2-Chloro-4-(2,4-difluoro-phenylamino)-benzoyl]-4-methyl-phenyl}-carbamic acid allyl ester]",–,0.6,1.3,65

# Now from value to compound, other results behind:
IC50 (p38α MAP kinase) [nM],IC50 (TNF-α) [nM],IC50 (IL-1β) [nM],SMILES,inhibition at 10 mg/kg [1] [%]
–,2,2.5,"COc1ccc(C(=O)NCCO)cc1C(=O)c1ccc(Nc2c(F)cccc2F)cc1Cl [Compound 173, 3-[2-Chloro-4-(2,6-difluoro-phenylamino)-benzoyl]-N-(2-hydroxy-ethyl)-4-methoxy-benzamide]",90
–,2,3.2,COc1ccc(C(=O)NCCF)cc1C(=O)c1ccc(Nc2c(F)cccc2F)cc1Cl [Compound 174],64
–,2,3.2,"COc1ccc(C(=O)NCCCO)cc1C(=O)c1ccc(Nc2c(F)cccc2F)cc1Cl [Compound 176, 3-[2-Chloro-4-(2,6-difluoro-phenylamino)-benzoyl]-N-(3-hydroxy-propyl)-4-methoxy-benzamide]",52
–,1.6,6.3,"COc1ccc(C(=O)NC(C)(C)CO)cc1C(=O)c1ccc(Nc2c(F)cccc2F)cc1Cl [Compound 178, 3-[2-Chloro-4-(2,6-difluoro-phenylamino)-benzoyl]-N-(2-hydroxy-1,1-dimethyl-ethyl)-4-methoxy-benzamide]",67
–,0.5,0.8,"Cc1ccc(C(=O)NCCO)cc1C(=O)c1ccc(Nc2cccc(F)c2C)cc1Cl [Compound 186, 3-[2-Chloro-4-(3-fluoro-2-methyl-phenylamino)-benzoyl]-N-(2-hydroxy-ethyl)-4-methyl-benzamide]",92
–,1,3.2,"COc1ccc(C(=O)NCC(F)F)cc1C(=O)c1ccc(Nc2ccc(F)cc2)cc1Cl [Compound 196, 3-[2-Chloro-4-(4-fluoro-phenylamino)-benzoyl]-N-(2,2-difluoro-ethyl)-4-methoxy-benzamide]",66
–,0.4,1.1,"COc1ccc(C(=O)NCC(O)CO)cc1C(=O)c1ccc(Nc2ccc(F)cc2)cc1Cl (stereo not shown) [Compound 198, 3-[2-Chloro-4-(4-fluoro-phenylamino)-benzoyl]-N-(2,3-dihydroxy-propyl)-4-methoxy-benzamide]",76
